Data reported in EP4076430B1, “A METHOD OF TREATING NONALCOHOLIC STEATOHEPATITIS” (Vector Vitale IP LLC, priority 2019, dated 2021).
“And” between values parts separate entries of the source, which are not always exact repeats. Equal values may be shown once. “Also recorded” adds a separate entry of the source.

Assays:
[1] = Body weight after intraperitoneal administration; format: in vivo; details: intact rats, 3750 µg of zinc per 1 kg, 7 injections every other day
Experimental: (§6) Animals are placed in cages, 4 per cage, with free access to food/water. […] Administration is performed every other day, in the amount of 7 injections per animal (intraperitoneal method of drug administration). The dose of the drug injected to each animal was calculated on the basis of the ratio: 3750 µg of zinc per 1 kg of animal body weight. After the last injection, a half of the animals are maintained on hunger (for 12 hours) with free access to water. Upon expiration of this time period, the animals are taken out of the experiment. The second half of the animals continues to have free access to food/water for a further 7 days. On day 6 after the last injection, the animals are maintained on hunger (for 12 hours) with free access to water. Upon expiration of this time period, the animals are taken out of the experiment.

pancreas = test: Morpho-functional analysis of pancreatic tissue in obesity model; format: in vivo, rats
Source text: After fixation, the pieces were rinsed in tap water. Then the material was dehydrated.
Dried preparations were stained with hematoxylin and eosin.

alkaline phosphatase = test: Serum alkaline phosphatase activity in obesity model; format: in vivo; details: high-fat diet rats treated
Source text: (§1) Test kit // Pliva-Lachema Diagnostika. - 2008.
The alkaline phosphatase activity was expressed in relative units.

[2] = Anthropometric values, amount and calorie content of food in high-fat diet induced obesity; details: 4.5 mg zinc aspartate intragastrically every third day; for BMI: week 10
Experimental: White non-pedigree rats with an initial weight of 195-205±10 g were used in the experiment. The animals were maintained in an accredited vivarium of the Academic and Research Center "Institute of Biology and Medicine" of Taras Shevchenko National University of Kyiv in accordance with the Standard rules on the arrangement, equipment and maintenance of experimental biological clinics (vivariums). The study was carried out in compliance with international standards and recommendations of the European Convention for the Protection of Vertebrate Animals used for Experimental and other Scientific Purposes (Strasbourg, 18/03/1986) and approved by the Bioethics Commission of the Academic and Research Center "Institute of Biology and Medicine".
Before the start of the experiment, animals were maintained on a standard diet of the vivarium. To induce obesity in experimental animals, they were fed high-fat diet which consisted of standard feed (60%), lard (10%), chicken eggs (10%), sucrose (9%), peanuts (5%), dry milk (5%) and sunflower oil (1%) (1%) (see X. H. Shen et al., Exp. Biol. and Med. 235: 47-51 (2010)). […] For the preparation of composition claimed standard Dulbecco's phosphate-buffered saline from (specified a manufacturer) (based on deuterium-depleted water Langway) as a diluent (liquid vehicle) was used.
Animals in all groups were weighed once a week after an overnight fast. The amount of feed to be consumed by the animals was determined daily. At the end of a 10-week period of the development of obesity models, 24 hours after the last administration of the zinc isotope solution, animals were removed from their cages and decapitated.
The body mass index (BMI) (the ratio of body weight (g) to the square of body length (cm^2)) was calculated at the end of the experiment.
Animals with an initial weight of 195-205±10 g maintained on the standard diet of the vivarium before performing obesity models were used in the experiments. To induce obesity in experimental animals, they were fed high-fat diet which consisted of standard feed (60%), lard (10%), chicken eggs (10%), sucrose (9%), peanuts (5%), dry milk (5%) and sunflower oil (1%), Shen X. et al., Experimental Biology and Medicine. - 2010. - ? […] The first 4 weeks of the experiment, all animals were maintained on a high-fat diet, after which they were randomly divided into two experimental groups: • animals in the first group (obesity) continued to eat their high-fat diet and had free access to water for the next 6 weeks of the experiment. • animals in the second group (obesity + solution of Zn-64 stable isotope in aspartate form) also followed their high-fat diet and had free access to water for the next 6 weeks of the experiment. But every third day and until the end of the experiment they were intragastrically administered a solution of Zn-64 stable isotope in aspartate form.
Animals in all groups were weighed once a week after an overnight fast. The amount of feed to be consumed by the animals was determined daily.

liver = test: Morpho-functional analysis of liver tissue (hepatocyte morphometry, fibrosis) in obesity model; format: in vivo, rats; details: Van Gieson's staining
[3] = Serum glucose concentration in obesity model; format: in vivo, rats; details: intragastrically every third day
Source text: The glucose concentration was expressed in mmol/L.

[4] = test system: central serotonergic system (brain); test: Indicators of the central serotonergic system in brain homogenate, obesity model; format: in vivo, rats; details: intragastrically every third day
Source text: (§2) The tissue : buffer ratio was 1:10.
(§3) The samples were reprecipitated by centrifugation. […]
(§4) The supernatant was used in further studies.

islets of Langerhans = test: Area of islets of Langerhans after intraperitoneal administration (microscopy); format: in vivo; details: intact rats, 3750 µg of zinc per 1 kg, day 7 after the last administration
Experimental: as §6

[5] = test system: products of oxidative modification of proteins; test: Serum levels of products of oxidative modification of proteins in obesity model; format: in vivo, rats; details: DIO+zinc: high-fat diet, intragastrically every third day
Experimental: (§5) Animal serum was prepared from whole blood. […] Samples were centrifuged for 15 min at 2500 g.
Proteins were precipitated by adding a 20% TCA solution.

insulin = test: Serum insulin level after intraperitoneal administration (ELISA); format: in vivo; details: intact rats, 3750 µg of zinc per 1 kg, 7 injections every other day
Experimental: The current dose was calculated by zinc.
The optical density was measured at 492 nm.

lipid metabolism = test: Serum triglycerides, cholesterol and free fatty acids in obesity model; format: in vivo, rats; details: high-fat diet, 2.25 mg/ml zinc aspartate intragastrically in 2 ml
Source text: To this end, high-fat diet obesity was induced in experimental animals as described in Example 2.

[6] = test system: peripheral serotonergic system (duodenum); test: Indicators of the peripheral serotonergic system in duodenal homogenate, obesity model; format: in vivo, rats; details: intragastrically every third day
Source text: as §2, §3, §4

[7] = Serum albumin in obesity model; format: in vivo, rats; details: obese animals treated
Source text: as §1

[8] = Accumulation of metals in liver and kidney tissues after intraperitoneal administration; format: in vivo, rats; details: day 1 and day 7 after discontinuation of the substances
Experimental: The total kidney, liver and muscle homogenates were prepared as follows. Organ excision and homogenization were carried out at a temperature of 1-4°C. Homogenization of tissues was carried out in 50 mM Tris-HCl buffer (pH 7.4) which contained 140 mM NaCl, 1 mM EDTA. The volume of the used buffer in ml was 5 times larger than the mass of isolated organs in grams. The isolated liver was perfused with chilled saline (0.9% NaCl) via the portal vein using a syringe. The minced liver was transferred to a homogenizer with a finely ground Teflon pestle and homogenized in chilled buffer. An isolated pair of kidneys was perfused with chilled saline, released from adipose tissue and minced with scissors. The minced tissue was transferred to a homogenizer with a finely ground Teflon pestle and homogenized in chilled buffer. The total kidney and liver homogenates were centrifuged at 600 g for 15 minutes. The liquid was decanted after the mince settled down and was centrifuged again at 15,000 g for 15 minutes. These two procedures allowed us to get rid of nuclear and mitochondrial debris. Aliquots of the prepared homogenates were frozen in nitrogen (Rybalchenko V.K., Koganov M.M. Structure and function of membrane 1988. - 312 pp).

Glucose tolerance test = format: in vivo, rats; set-up: Glucose, 0 min (1 h after effector administration): unit not given here; details: for glucose levels in the glucose tolerance test compared with the control group: 5 mg/kg in 2 ml, glucose 3 g/kg
Source text: 5 animals were used within the same experimental group.

catalase = test: Serum catalase activity, obesity model; format: in vivo, rats; details: DIO+zinc: high-fat diet, intragastrically every third day
Source text: Korolyuk M.A. et al., Lab. Business. - 1988. - No. 1. - P. 44-67.

[9] = test system: pro- and anti-inflammatory cytokines; test: Cytokine profile in adipose tissue in obesity model (immunoenzyme method); format: in vivo, rats; details: intragastrically every third day
Experimental: Adipose tissue was crushed using cold scissors then transferred to a homogenizer with a loose-fitting Teflon pestle. […] Primary homogenate thus obtained was centrifuged at 600 g for 15 minutes. The supernatant was carefully collected and re-centrifuged at 15,000 g for 15 minutes. The supernatant was then frozen and stored at -80°C until the experiments.
The antigen solution, previously diluted with 0.1 M NaHCO3 buffer, pH 9.6, to a concentration of 10 µg/ml, was incubated in the plate wells for 12 hours at 4°C. Unbound material was removed by washing the wells three times with TBS buffer, first with 0.05% Tween-20, then without Tween-20. Non-specific binding sites were blocked by adding a solution of 5% skim milk or a solution of 1% bovine serum albumin to the plate wells and incubating them for 60 minutes at 37°C. After incubation, the wells were washed three times with TBS, first with 0.05% Tween-20, then without Tween-20. Primary antibodies were diluted in TBS in accordance with the manufacturer's instructions and incubated with the antigen for 60 min at 37°C. After washing with TBS working buffer, first with the addition of 0.05% Tween-20, then without Tween-20, the conjugate of secondary antibodies was added to the wells and incubated for 60 min at 37°C. As with the primary antibodies, secondary antibodies were diluted in TBS in accordance with the manufacturer's instructions. After the washing procedure, phenyldiamine dihydrochloride as substrate in 0.05M phosphate-citrate buffer was added to each well, followed by the addition of 0.3% hydrogen peroxide. After 10 minutes, the reaction time needed for development, 2.5 n H2SO4 was added.
The absorbance at a wavelength of 492 nm was measured using a µQuant microplate spectrophotometer (BioTek Instruments).

superoxide dismutase = test: Serum superoxide dismutase activity, obesity model; format: in vivo, rats; details: DIO+zinc: high-fat diet, intragastrically every third day
Experimental: To measure superoxide dismutase activity, a method based on the ability of this enzyme to inhibit auto-oxidation of adrenaline was used.
Serum aliquots were added to microplate wells containing 0.2M bicarbonate buffer, pH 10. The reaction was initiated by adding 0.1% adrenaline solution in each well. A relevant volume of buffer was added to the "blank" wells to which no test sample was added. The optical density was measured at a wavelength of 347 nm using a µQuant microplate spectrophotometer (BioTek Instruments) at the 4th and 8th minute after adrenaline was added to the wells. The enzyme activity was expressed in relative units/min/mg.

[10] = test system: pro- and anti-inflammatory cytokines; test: Serum cytokine profile in obesity model (immunoenzyme method); format: in vivo, rats; details: intragastrically every third day
Experimental: as §5

[11] = test system: tryptophan, serotonin, monoamine oxidase; test: Serum tryptophan, serotonin and monoamine oxidase activity, obesity model; format: in vivo, rats; details: intragastrically every third day
Experimental: as §5
The samples were reprecipitated by centrifugation.
University. Medicine. - 2000. - 1, No. 494. - P. 40-43.

## N[C@@H](CC(=O)[O-])C(=O)[O-].[Zn+2] [^64Zne, zinc aspartate]
[1]
  body weight of rats: significant increase
pancreas; rats fed a standard diet, hematoxylin & eosin
  morphology of exocrine cells of the pancreas: did not change
pancreas; rats having obesity
  cross-sectional surface area of the islets of Langerhans, increase compared with the obesity group: 43%
  cross-sectional surface area of the islets of Langerhans, lower than the control value: 29%
pancreas; rats that ate a standard diet
  cross-sectional surface area of the islets of Langerhans, decrease compared with the control group: 39%
Alkaline phosphatase
  alkaline phosphatase activity: higher than both in the group of diet-induced obesity models and in the control group
[2]; C+zinc: standard diet
  Amount of food consumed: 32 g/day
  Calorie content of food: 490 kJ/day
  Weight gain as of the end of the experiment: 59%
  BMI: 0.59 g/cm^2
[2]; DIO+zinc: high-fat diet
  Amount of food consumed: 29 g/day
  Calorie content of food: 823 kJ/day
  Weight gain as of the end of the experiment: 62%
  BMI: 0.65 g/cm^2
liver; obesity group treated
  area of collagen fiber deposits, increased by a factor versus the control group: 6
liver; rats eating a standard diet
  increase in the area of deposition of collagen fibers: 2 fold
[3]; C+zinc: standard diet
  Glucose levels: 4.7 ± 0.2 mmol/L
[3]; DIO+zinc: high-fat diet
  Glucose levels: 4.9 ± 0.2 mmol/L
[4]; C+zinc: standard diet
  Indoleamine dioxygenase activity: 1178 ± 267 µmol/mg protein
  Monoamine oxidase activity: 0.91 ±0.06 RU/mg protein
  Serotonin: 25.51 ± 2.71 µg/g
  Tryptophan: 87.71 ± 3.41 µg/g
  Tryptophan decarboxylase activity: 1.63 ± 0.41 RU/mg protein
  Tryptophan hydroxylase activity: 291 ± 29 RU/mg protein
[4]; DIO+zinc: high-fat diet
  Indoleamine dioxygenase activity: 2007 ± 175 µmol/mg protein
  Monoamine oxidase activity: 0.99±0.08 RU/mg protein
  Serotonin: 20.1 ± 3.21 µg/g
  Tryptophan: 31.56 ± 2.14 µg/g
  Tryptophan decarboxylase activity: 1.86 ± 0.37 RU/mg protein
  Tryptophan hydroxylase activity: 286 ± 17 RU/mg protein
Islets of Langerhans
  area of islets of Langerhans compared to the control group and the zinc acetate group: significant increase
[5]
  Aldehyde-dinitrophenyl-hydrazones: 0.253±0.012 nmol/mg protein
  Ketone-dinitrophenyl-hydrazones: 0.200±0.024 nmol/mg protein
insulin
  serum insulin levels at day 7 after the withdrawal: increased
  serum insulin levels on the first day after the drug withdrawal: slightly higher than in the group of intact animals
insulin; listed as zinc isotope
  serum insulin levels at day 7 after the withdrawal: significant increase
Lipid metabolism
  levels of triglycerides, cholesterol and free fatty acids in the serum: almost at the same level as in the control group
[6]; C+zinc: standard diet
  Indoleamine dioxygenase activity: 2150 ± 231 µmol/mg protein
  Monoamine oxidase activity: 3.82 ±0.07 RU/mg protein
  Serotonin: 7.41 ± 0.54 µg/g
  Tryptophan: 154.7 ± 13.6 µg/g
  Tryptophan decarboxylase activity: 0.79 ± 0.22 RU/mg protein
  Tryptophan hydroxylase activity: 375 ± 61 RU/mg protein
[6]; DIO+zinc: high-fat diet
  Indoleamine dioxygenase activity: 1768 ± 274 µmol/mg protein
  Monoamine oxidase activity: 1.72 ±0.03 RU/mg protein
  Serotonin: 9.73 ± 0.82 µg/g
  Tryptophan: 89.4 ± 8.99 µg/g
  Tryptophan decarboxylase activity: 0.78 ± 0.19 RU/mg protein
  Tryptophan hydroxylase activity: 253 ± 58 RU/mg protein
[7]
  effect on albumin values: no effect
[8]
  accumulation of zinc in the kidney and liver tissues: significantly increased
Glucose tolerance test; listed as zinc isotope
  glucose levels in the glucose tolerance test compared with the control group: drop in glucose concentration; also recorded: decrease in glucose levels
Glucose tolerance test; listed as zinc isotope ^64Zn
  glucose levels in the glucose tolerance test compared with the control group: significant decrease in glucose levels
catalase
  Catalase activity: 0.48±0.02 µmol H2O2/min per mg protein
[9]; C+zinc: standard diet
  IFN-γ level: 5.0±0.8 RU/mg protein
  IL-1 level: 4.9±1.7 RU/mg protein
  IL-4 level: 5.0±0.4 RU/mg protein
  IL-6 level: 5.4±0.3 RU/mg protein
  IL-10 level: 4.9±0.2 RU/mg protein
  IL-12 level: 1.0±0.03 RU/mg protein
  TGF level: 5.1±0.6 RU/mg protein
[9]; DIO+zinc: high-fat diet
  IFN-γ level: 4.9±0.8 RU/mg protein
  IL-1 level: 5.8±1.8 RU/mg protein
  IL-4 level: 5.1±1.2 RU/mg protein
  IL-6 level: 6.1±0.7 RU/mg protein
  IL-10 level: 5.8±0.8 RU/mg protein
  IL-12 level: 1.99±0.01 RU/mg protein
  TGF level: 5.2±0.9 RU/mg protein
Superoxide dismutase
  Superoxide dismutase activity: 4.5±0.43 # RU/ min per mg protein
[10]; C+zinc: standard diet
  IFN-γ level: 4.6±0.6 RU/mg protein
  IL-1 level: 3.5±0.7 RU/mg protein
  IL-4 level: 4.6±0.8 RU/mg protein
  IL-6 level: 4.3±0.2 RU/mg protein
  IL-10 level: 4.1±0.5 RU/mg protein
  IL-12 level: 0.3±0.04 RU/mg protein
  TGF level: 4.1±0.4 RU/mg protein
[10]; DIO+zinc: high-fat diet
  IFN-γ level: 4.1±1.2 RU/mg protein
  IL-1 level: 4.2±0.4 RU/mg protein
  IL-4 level: 5.6±1.6 RU/mg protein
  IL-6 level: 5.1±0.4 RU/mg protein
  IL-10 level: 6.8±1.1 # RU/mg protein
  IL-12 level: 2.4±0.06 RU/mg protein
  TGF level: 5.7±0.3 # RU/mg protein
[10]; DIO+zinc: high-fat diet, listed as Zn-64 stable isotope in aspartate form
  TGF level: 5.7±0.3 RU/mg protein
[11]; C+zinc: standard diet
  Monoamine oxylase activity: 2.52±0.03 RU/mg protein
  Serotonin: 10.16 ± 0.62 µg/g
  Tryptophan: 56.12 ± 7.58 µg/g
[11]; DIO+zinc: high-fat diet
  Monoamine oxylase activity: 3.11±0.08 RU/mg protein
  Serotonin: 6.33 ± 0.51 µg/g
  Tryptophan: 66.65 ± 9.62 µg/g

## CC(=O)[O-].CC(=O)[O-].[Zn+2] [Zn acetate, Zn(CH3COO)2, reference compound]
insulin
  serum insulin levels at day 7 after the withdrawal: drop in the insulin levels to the value of those of intact/control animals
  serum insulin levels on the first day after the drug withdrawal: significant increase
[8]
  accumulation of zinc in the kidney and liver tissues: significantly increased
Glucose tolerance test
  glucose levels in the glucose tolerance test compared with the control group: also dropped, though not so strongly
Glucose tolerance test; individual animals, dose: 5 mg/kg in a volume of 2 ml, fast overnight, 5 mg/kg
  Glucose, 0 min (1 h after effector administration): 4.6 and 5.2 (2×) and 4.9 and 5.1
Glucose tolerance test; individual animals, dose: 5 mg/kg in a volume of 2 ml, glucose 3 g/kg body weight in 2 ml, 5 mg/kg
  Glucose, 60 min (1 h after glucose administration): 7.2 (2×) and 6.9 and 7.3 and 6.8
